# Measurements taken from patent US7608604B2, “Antiparasitic agents” (Pfizer Limited, priority 2007, dated 2009).
# Tested on: Haemonchus contortus L3
# Assay: Haemonchus contortus L3 (HcL3) in vitro test
# Type: cell-based
# Conditions: minimum effective dose; exsheathed L3 larvae in vitro, 37° C., observed up to 4 days, n=2
# Description: The Haemonchus contortus L3 (HcL3) test is used to measure the biological activities of the compounds claimed. The assay involves in vitro testing against H. contortus conducted according to the following general procedure.
# HcL3 larvae were collected from infected sheep and, after cleaning, stored in water at 12° C. for up to one month. Viable infective larvae were exsheathed using 10% hypochlorite in Glucose Tyrodes balanced salt solution containing antibiotics and resuspended in basal medium (20 g/l bacto-tryptone, 5 g/l yeast extract, 57 g/l glucose, 0.8 g/l di-Potassium hydrogen orthophosphate, 0.8 g/l potassium dihydrogen orthophosphate and […] Hepes with antibiotics). 95 μl worm suspension was added to each well of a 96 well plate.
# Test compounds were dissolved in dimethylsulfoxide to give a working stock solution of 20 mg/ml. The stock concentration was diluted 1:10 in Basal media to give 2.0 mg/ml (10% DMSO). 5 μl of the stock compound solution was added to the worm suspension to give a final concentration of 100 μg/ml. Plates were sealed with pressure sensitive film and incubated at 37° C. Observations were made 2 hrs, 24 hrs, 48 hrs, 72 hrs and 4 days post-treatment using an inverted microscope. Activity was recorded if a significant proportion of the worms were dead or adversely affected by the compound when compared to the control well containing 1% DMSO. Compounds were initially tested at 100 μg/ml, wherefrom relevant dose responses (100, 30, 10, 3, 1, 0.3, 0.1 μg/ml) were conducted in duplicate experiments to generate n=2. Data was recorded as minimum effective dose.
row,Compound,in vitro H.c. (L3) MED [µg/mL]
1,"CC(C#N)(COc1cc(C#N)ccc1C(F)(F)F)NC(=O)c1ccc(S(F)(F)(F)(F)F)cc1 (racemic) [Example 1a, N-{1-cyano-2-[5-cyano-2-(trifluoromethyl)phenoxy]-1-methylethyl}-4-(pentafluorothio)benzamide]",3
2,"CC(C#N)(COc1cc(C#N)ccc1Cl)NC(=O)c1ccc(S(F)(F)(F)(F)F)cc1 (racemic) [Example 2, N-[2-(2-Chloro-5-cyanophenoxy)-1-cyano-1-methylethyl]-4-(pentafluorothio)benzamide]",1
3,"CC(C#N)(COc1ccc(C#N)cc1C(F)(F)F)NC(=O)c1ccc(S(F)(F)(F)(F)F)cc1 (racemic) [Example 3a, N-{1-Cyano-2-[4-cyano-2-(trifluoromethyl)Phenoxy]-1-methylethyl}-4-(pentafluorothio)benzamide]",1
4,"CC(C#N)(COc1c(F)cc(C#N)cc1C(F)(F)F)NC(=O)c1ccc(S(F)(F)(F)(F)F)cc1 (racemic) [Example 4, N-{1-Cyano-2-[4-cyano-2-fluoro-6-(trifluoromethyl)phenoxy]-1-methylethyl}-4-(pentafluorothio)benzamide]",3
5,"C[C@](C#N)(COc1cc(C#N)ccc1C(F)(F)F)NC(=O)c1ccc(S(F)(F)(F)(F)F)cc1 (single isomer, unassigned) [Example 1c, N-{1-cyano-2-[5-cyano-2-(trifluoromethyl)phenoxy]-1-methylethyl}-4-(pentafluorothio)benzamide]",> 30
6,"CC(C#N)(COc1ccc(C#N)cc1C(F)(F)F)NC(=O)c1ccc(S(F)(F)(F)(F)F)cc1 (single isomer, unassigned) [Example 3b, N-{1-Cyano-2-[4-cyano-2-(trifluoromethyl)Phenoxy]-1-methylethyl}-4-(pentafluorothio)benzamide]",1
7,"CC(C#N)(COc1ccc(C#N)cc1C(F)(F)F)NC(=O)c1ccc(S(F)(F)(F)(F)F)cc1 (single isomer, unassigned) [Example 3c, N-{1-Cyano-2-[4-cyano-2-(trifluoromethyl)Phenoxy]-1-methylethyl}-4-(pentafluorothio)benzamide]",> 30
8,"CC(C#N)(COc1cc(C#N)ccc1C(F)(F)F)NC(=O)c1ccc(S(F)(F)(F)(F)F)cc1 (centres unmarked) [Example 1b, N-{1-cyano-2-[5-cyano-2-(trifluoromethyl)phenoxy]-1-methylethyl}-4-(pentafluorothio)benzamide]",1

# Same assay, conditions: minimum effective dose; table of Examples 5-11
row,Compound,H.c. (L3) MED [µg/mL]
1,"CC(C#N)(COc1ccc(C#N)cc1Cl)NC(=O)c1ccc(S(F)(F)(F)(F)F)cc1 (centres unmarked) [Example 5, N-[2-(2-Chloro-4-cyanophenoxy)-1-cyano-1-methylethyl]-4-(pentafluorothio)benzamide]",3
2,"CC(C#N)(COc1ccc(C#N)c(Cl)c1)NC(=O)c1ccc(S(F)(F)(F)(F)F)cc1 (centres unmarked) [Example 6, N-[2-(3-Chloro-4-cyanophenoxy)-1-cyano-1-methylethyl]-4-(pentafluorothio)benzamide]",3
3,"CC(C#N)(COc1cc(C#N)cc(C(F)(F)F)c1)NC(=O)c1ccc(S(F)(F)(F)(F)F)cc1 (centres unmarked) [Example 7, N-{1-cyano-2-[3-cyano-5-(trifluoromethyl)phenoxy]-1-methylethyl}-4-(pentafluorothio)benzamide]",30
4,"CC(C#N)(COc1c(F)cc(F)cc1C#N)NC(=O)c1ccc(S(F)(F)(F)(F)F)cc1 (centres unmarked) [Example 8, N-[1-Cyano-2-(2-cyano-4,6-difluorophenoxy)-1-methylethyl]-4-(pentafluorothio)benzamide]",30
5,"CC(C#N)(COc1cc(C#N)ccc1C#N)NC(=O)c1ccc(S(F)(F)(F)(F)F)cc1 (centres unmarked) [Example 9, N-[1-Cyano-2-(3,6-dicyanophenoxy)-1-methylethyl]-4-(pentafluorothio)benzamide]",3
6,"CC(C#N)(COc1ccc(Br)cc1C(F)(F)F)NC(=O)c1ccc(S(F)(F)(F)(F)F)cc1 (centres unmarked) [Example 10, N-{2-[4-Bromo-2-(trifluoromethyl)phenoxy]-1-cyano-1-methylethyl}-4-(pentafluorothio)benzamide]",10
7,"CC(C#N)(COc1ccc(C#N)cc1Br)NC(=O)c1ccc(S(F)(F)(F)(F)F)cc1 (centres unmarked) [Example 11, N-[2-(2-Bromo-4-cyanophenoxy)-1-cyano-1-methylethyl]-4-(pentafluorothio)benzamide]",3

# Same assay, conditions: minimum effective dose; table of Examples 13a-42; 13a/b, 27a/b, 29a/b, 33a/b tested as mixtures of regioisomers
row,Compound,H.c. (L3) MED [µg/mL]
1,"CC(C#N)(COc1cc(Cl)cc(C#N)c1)NC(=O)c1ccc(S(F)(F)(F)(F)F)cc1 (centres unmarked) [Example 14, N-[2-(3-Chloro-5-cyanophenoxy)-1-cyano-1-methylethyl]-4-(pentafluorothio)benzamide]",3
2,"CC(C#N)(COc1cc(Br)ccc1C#N)NC(=O)c1ccc(S(F)(F)(F)(F)F)cc1 (centres unmarked) [Example 16, N-[2-(5-Bromo-2-cyanophenoxy)-1-cyano-1-methylethyl]-4-(pentafluorothio)benzamide]",10
3,"CC(C#N)(COc1ccc(Cl)cc1C#N)NC(=O)c1ccc(S(F)(F)(F)(F)F)cc1 (centres unmarked) [Example 17, N-[2-(4-Chloro-2-cyanophenoxy)-1-cyano-1-methylethyl]-4-(pentafluorothio)benzamide]",3
4,"CC(C#N)(COc1cccc(F)c1C#N)NC(=O)c1ccc(S(F)(F)(F)(F)F)cc1 (centres unmarked) [Example 18, N-[1-Cyano-2-(2-cyano-3-fluorophenoxy)-1-methylethyl]-4-(pentafluorothio)benzamide]",10
5,"CC(C#N)(COc1ccccc1C#N)NC(=O)c1ccc(S(F)(F)(F)(F)F)cc1 (centres unmarked) [Example 19, N-[1-Cyano-2-(2-cyanophenoxy)-1-methylethyl]-4-(pentafluorothio)benzamide]",10
6,"CC(C#N)(COc1ccc(I)cc1)NC(=O)c1ccc(S(F)(F)(F)(F)F)cc1 (centres unmarked) [Example 20, N-[1-Cyano-2-(4-iodophenoxy)-1-methylethyl]-4-(pentafluorothio)benzamide]",3
7,"CC(C#N)(COc1ccccc1C(F)(F)F)NC(=O)c1ccc(S(F)(F)(F)(F)F)cc1 (centres unmarked) [Example 21, N-{1-Cyano-1-methyl-2-[2-(trifluoromethyl)phenoxy]ethyl}-4-(pentafluorothio)benzamide]",30
8,"CC(C#N)(COc1ccc(C#N)cc1)NC(=O)c1ccc(S(F)(F)(F)(F)F)cc1 (centres unmarked) [Example 22, N-[1-Cyano-2-(4-cyanophenoxy)-1-methylethyl]-4-(pentafluorothio)benzamide]",10
9,"CC(C#N)(COc1cc(F)cc(Cl)c1)NC(=O)c1ccc(S(F)(F)(F)(F)F)cc1 (centres unmarked) [Example 23, N-[2-(3-Chloro-5-fluorophenoxy)-1-cyano-1-methylethyl]-4-(pentafluorothio)benzamide]",30
10,"CC(C#N)(COc1cc(Cl)ccc1C#N)NC(=O)c1ccc(S(F)(F)(F)(F)F)cc1 (centres unmarked) [Example 24, N-[2-(5-Chloro-2-cyanophenoxy)-1-cyano-1-methylethyl]4-(pentafluorothio)benzamide]",3
11,"CC(C#N)(COc1ccccc1Cl)NC(=O)c1ccc(S(F)(F)(F)(F)F)cc1 (centres unmarked) [Example 25, N-[2-(2-Chlorophenoxy)-1-cyano-1-methylethyl]-4-(pentafluorothio)benzamide]",10
12,"CC(C#N)(COc1cccc(Cl)c1C#N)NC(=O)c1ccc(S(F)(F)(F)(F)F)cc1 (centres unmarked) [Example 26, N-[2-(3-Chloro-2-cyanophenoxy)-1-cyano-1-methylethyl]-4-(pentafluorothio)benzamide]",10

# Same assay, conditions: minimum effective dose; unit not given
row,Compound,in vitro H.c. (L3) MED
1,"CC(C#N)(COc1ccc(C(N)=O)cc1C(F)(F)F)NC(=O)c1ccc(S(F)(F)(F)(F)F)cc1 (racemic) [Example 43, 4-(2-Cyano-2-{[4-(pentafluorothio)benzoyl]amino}propoxy)-3-(trifluoromethyl)benzamide]",1
2,"CC(C#N)(COc1cc(C#N)cc(C(F)(F)F)c1Cl)NC(=O)c1ccc(S(F)(F)(F)(F)F)cc1 (racemic) [Example 44, N-{2-[2-Chloro-5-cyano-3-(trifluoromethyl)phenoxy]-1-cyano-1-methylethyl}-4-(pentafluorothio)benzamide]",10
3,"CC(C#N)(COc1cccc(C#N)c1)NC(=O)c1ccc(S(F)(F)(F)(F)F)cc1 (racemic) [Example 50, N-[1-Cyano-2-(3-cyanophenoxy)-1-methylethyl]-4-(pentafluorothio)benzamide]",3
4,"CC(C#N)(COc1cc(C#N)cc(C(N)=O)c1)NC(=O)c1ccc(S(F)(F)(F)(F)F)cc1 (racemic) [Example 53, 3-Cyano-5-(2-cyano-2-{[4-(pentafluorothio)benzoyl]amino}propoxy)benzamide]",30
5,"CC(C#N)(COc1ccc(Cl)cc1Cl)NC(=O)c1ccc(S(F)(F)(F)(F)F)cc1 (centres unmarked) [Example 12, N-[1-Cyano-2-(2,4-dichlorophenoxy)-1-methylethyl]-4-(pentafluorothio)benzamide]",3
